Measured values: ChEMBL document CHEMBL4308917, “Tripeptide analogues of MG132 as protease inhibitors” (Bioorg Med Chem, 2019)
Residues, ends and D or L forms follow the SMILES beside them. *: point of attachment. Cbz = O=C(OCc1ccccc1)*

Experiments:
[1] = Inhibition of chymotrypsin like activity of rabbit 20S proteasome beta 5 subunit using Suc-LLVY-AMC as substrate preincubated for 15 mins followed by substrate addition and measured after 2 hrs by fluorescence assay; design: species or system Oryctolagus cuniculus
[2] = system: Plasmodium falciparum; experiment: Antiplasmodial activity against Plasmodium falciparum D10 cultured in human O+ erythrocytes after 50 to 60 hrs by ethidium bromide staining-based flow cytometric analysis; format: functional, organism-based
[3] = Inhibition of recombinant ovine lung calpain-2 protease using BODIPY-FL casein as substrate after 10 mins by fluorescence-based assay; design: species or system Ovis aries
[4] = Selectivity ratio of IC50 for chymotrypsin like activity of rabbit 20S proteasome beta 5 to IC50 for recombinant ovine lung calpain 2 protease
[5] = biological target: T1, Proteasome Macropain subunit MB1 (Homo sapiens) (UniProt P28074); experiment: Ratio of test compound IC50 to MG132 IC50 for chymotrypsin like activity of 26S proteasome beta 5 subunit (unknown origin) by fluorescence assay
T1 sequence (whole entry): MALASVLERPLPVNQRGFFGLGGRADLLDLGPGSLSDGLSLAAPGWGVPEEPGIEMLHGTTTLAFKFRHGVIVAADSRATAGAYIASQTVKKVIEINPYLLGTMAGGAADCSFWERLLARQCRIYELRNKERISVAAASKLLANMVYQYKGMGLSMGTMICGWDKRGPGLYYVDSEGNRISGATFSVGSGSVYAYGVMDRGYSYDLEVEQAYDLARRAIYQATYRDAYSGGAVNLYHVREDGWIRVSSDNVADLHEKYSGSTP

[6] = biological target: T2, Proteasome Macropain subunit MB1 (Homo sapiens, UniProt P28074); experiment: Inhibition of chymotrypsin like activity of 26S proteasome beta 5 subunit (unknown origin) by fluorescence assay
T2 sequence (P28074 whole entry): T1 sequence (whole entry)

[7] = Inhibition of recombinant ovine lung calpain-1 protease using BODIPY-FL casein as substrate measured at 30 secs time interval for 30 mins by fluorescence-based assay; design: species or system Ovis aries
[8] = Selectivity ratio of IC50 for chymotrypsin like activity of 26S proteasome beta 5 subunit (unknown origin) to IC50 for recombinant ovine lung calpain 2 protease
[9] = biological target: T3, Calpain-2 catalytic subunit (Sus scrofa, UniProt P43367); experiment: Inhibition of recombinant porcine calpain 2 protease using BODIPY-FL casein as substrate measured at 30 secs time interval for 30 mins by fluorescence-based assay
T3 sequence (P43367 whole entry): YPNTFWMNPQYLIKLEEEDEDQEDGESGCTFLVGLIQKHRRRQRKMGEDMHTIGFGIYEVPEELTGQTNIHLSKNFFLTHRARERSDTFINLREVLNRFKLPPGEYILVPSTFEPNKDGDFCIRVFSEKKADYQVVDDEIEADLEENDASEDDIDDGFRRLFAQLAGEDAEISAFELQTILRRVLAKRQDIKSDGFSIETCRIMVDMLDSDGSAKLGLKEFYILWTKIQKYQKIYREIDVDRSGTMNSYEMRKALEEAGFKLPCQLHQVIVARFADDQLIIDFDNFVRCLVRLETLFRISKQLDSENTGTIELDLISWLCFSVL

[10] = Inhibition of recombinant ovine lung calpain-2 protease using BODIPY-FL casein as substrate measured at 30 secs time interval for 30 mins by fluorescence-based assay; design: species or system Ovis aries
[11] = organism: Ovis aries; experiment: Potency index, ratio of MG132 IC50 to test compound IC50 for recombinant ovine lung calpain-2 protease using BODIPY-FL casein as substrate measured at 30 secs time interval for 30 mins by fluorescence-based assay

Compound | IC50 [1] [nM] | IC50 [2] [nM] | IC50 [3] [nM] | Ratio IC50 [4] | Ratio IC50 [5] | IC50 [6] [nM] | IC50 [7] [nM] | Ratio IC50 [8] | IC50 [9] [nM] | IC50 [10] [nM] | Ratio IC50 [11]
C#CCOc1ccc(C[C@@H](C=O)NC(=O)[C@H](CC(C)C)NC(=O)[C@H](CCCCN=[N+]=[N-])NC(=O)OCc2ccccc2)cc1 | 150 | 561 | 1030 | 0.15 | 16 to 428 | – | – | – | – | – | –
CC(C)C[C@H](NC(=O)OCc1ccccc1)C(=O)N[C@@H](CC(C)C)C(=O)N[C@@H](CC(C)C)C(=O)[C@@]1(C)CO1 | – | 6130 | – | – | 16 to 428 | 220 | 9800 | 0.05 | 4200 | 4400 | –
C#CCOc1ccc(C[C@@H](C=O)NC(=O)[C@@H](NC(=O)[C@H](CCCCN=[N+]=[N-])NC(=O)OCc2ccccc2)[C@@H](C)CC)cc1 | 20 | 146 | 390 | 0.05 | 16 to 428 | – | – | – | – | – | –
C#CCOc1ccc(C[C@@H](C=O)NC(=O)[C@H](CC(C)C)NC(=O)[C@H](Cc2ccccc2)NC(=O)OCc2ccccc2)cc1 | – | 250 | – | – | 16 to 428 | 189 | 81 | 14 | 34 | 13 | > 3
CC(C)C[C@@H](C=O)NC(=O)[C@H](CO)NC(=O)[C@H](CC(C)C)NC(=O)OCc1ccccc1 (Cbz-Leu-Ser-Leu-aldehyde) | – | 213 | – | – | 16 to 428 | 269 | 40 | 2.7 | 160 | 99 | > 3
CC(C)C[C@@H](C=O)NC(=O)[C@H](CC(C)C)NC(=O)[C@H](Cc1ccccc1)NC(=O)OCc1ccccc1 (Cbz-Phe-Leu-Leu-aldehyde) | – | 62 | – | – | 16 to 428 | 139 | 8 | 13 | 6 | 11 | > 3
CC(C)C[C@H](NC(=O)[C@H](Cc1ccccc1)NC(=O)OCc1ccccc1)C(=O)N[C@H](C=O)Cc1ccccc1 (Cbz-Phe-Leu-Phe-aldehyde) | – | 191 | – | – | 16 to 428 | 514 | 51 | 86 | 27 | 6 | > 3
CC(C)C[C@@H](C=O)NC(=O)[C@H](CC(C)C)NC(=O)[C@H](CC(C)C)NC(=O)OCc1ccccc1 [MG-132] (Cbz-Leu-Leu-Leu-aldehyde) | – | 35 | – | – | – | – | 120 | – | – | 311 | –
